Several values for one entry are separate records, joined by “and”; a condition that tells them apart may be missing. Equal entries are not always repeated. Where two headings read alike, the source gives them in different places.
Tests used:
E. coli [1] = format: cell-based, Escherichia coli; settings: 24 h contact time
Description: Escherichia coli ATCC 11229 (Culti-loops, Remel Europe, Dartford, Kent, UK) and Pseudomonas aeruginosa ATCC 15442 (Cuti-loops, Remel Europe, Dartford, Kent, UK) were selected as model Gram-negative organisms for the challenge testing of the antimicrobial coatings. Each bacterial strain was streaked for isolated colonies on Tryptic Soy Agar (TSA) plates (Difco, Becton Dickinson, Sparks, Md., U.S.A.) and incubated at 37° C. for 12 to 18 hours. Broth cultures were prepared by first picking 1-2 isolated colonies from TSA plates and inoculating 5 mL Tryptic Soy Broth (TSB; Difco, Becton Dickinson, Sparks, Md., U.S.A.) in a 16 mm test tube. This culture was grown in a shaking water bath at 150 RPM for 8 hours at 37° C. After the eight hours, 125 μL of this culture was added to 50 mL of TSB in a side-arm Klett flask and grown for approximately 8 hours in shaking water bath (150 RPM) at 37° C. The bacterial broths were grown to an A590 of 1.2-1.5, which correlated to approximately 10^9 CFU (colony forming units)/mL. 25 mL of this broth were transferred to a sterile 30 mL Oakridge tube and centrifuged at 12,000×g for 10 minutes at 4° C. (Sorval SS34 rotor) to pelletize the bacteria. The bacterial pellet was washed once and resuspended in 25 mL of phosphate buffer solution (PBS; BBL, FTA Hemaglutination Buffer, Becton Dickinson, Sparks, Md., U.S.A.). The suspension was diluted with PBS to achieve the target range of 10^5-10^6 CFU/mL and used to inoculate the slides containing antibacterial coatings.
Xylene/methanol (5:1 by weight) is used to dissolve the silver surfactants to facilitate homogeneously mixing with the alkyd resin composition.
A minus sign (−) denotes no growth, a plus sign (+) denotes confluent growth, and a capital P (P) denotes […].
Xylene/methanol (5:1 by weight) is used to dissolve the silver surfactants to facilitate homogeneously mixing with the acrylic resin composition.
The same laboratory experimental solvent based acrylic paint described in Example 34 is used to challenge E. coli by adding various levels of the invention silver anionic surfactants as described in Example 34.
A commercially available 2K epoxy resin paint is obtained from a local paint store (Sherwin Williams High Solids Epoxy Tile Clad HS; Part A B62WC11; Part B B60VZ75, The Sherwin Williams Company) and the same silver anionic surfactants described in Example 35 are used to prepare test coatings on microscope slides containing various levels of silver ion. These surfactants are dissolved in xylene/methanol (5:1 by weight) to facilitate their quantitative addition to the coating mixture.

E. coli [2] = settings: 24 h contact time
From the text: (§1) PU formulated at a TDI: PPG mole ratio of 1.5:1 are post treated with water.

S. aureus [3] = settings: 24 h contact time
From the text: as §1

[4] = test system: Staphylococcus aureus ATCC 6538;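 further: bacterial suspension pipetted onto each coated surface, then recovered in PBS, serially diluted and spread on TSA plates to count viable colonies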
Description: The antimicrobial activities of the coatings on coupons and slides are tested against both Gram-positive (Staphylococcus aureus ATCC 6538) and Gram-negative (Escherichia coli ATCC 11229) bacteria. The following set of steps are executed over a four day period, in order to evaluate the coatings for antimicrobial activity.
(1) Three colonies are picked from a Petri dish that contains refrigerator stock of E. coli and S. aureus. Each of the colonies is placed into a separate test tube of 5 mL of TSB (tryptic soy broth); (2) the TSB cultures are incubated in a heated shaker; the culture is grown overnight at 37° C. while shaking at 175 rpm.
(1) 500 μL (0.5 mL) of FINAL E. coli bacteria are placed onto the center of each sterilized coating (24 hour); the same is done with S. aureus; (2) the coupons/coatings are stored for 24 hours in sealed pan by stacking Petri dishes on top of one another; (3) 200 mL of sterile water is added to the bottom of each pan; each pan is enclosed with clear saran wrap and aluminum foil; the Pyrex pans containing the coatings are incubated at room temperature for 24 hours; all inoculations of the coatings are performed in the same laminar flow hood as where the sterilized slides are placed into sterile Petri dishes; the prepared bacterial suspension (0.5 ml) is directly pipetted onto the coating of the slide; the spreading of the innoculum across the surface of the coating is observed and noted.
(1) 500 μL (0.5 mL) of FINAL E. coli bacteria is placed onto the center of each sterilized coating (0 hour); the same is done with S. aureus; (2) after bacteria are added to the 0 hour coatings, each Petri dish (containing the coating) is submerged with 25 mL of PBS; this immersion stops the viable bacteria from continuing to grow; (3) 100 μL of fluid is removed from coatings dish and placed in the middle of a previously labeled TSA plate; this is done to both agar plates labeled with −1 concentration; before removing the fluid, the surface of the coupon is scratched with a sterile loop to activate movement of bacteria; (4) “hockey sticks” are sterilized with ethanol and flame, to spread solution thoroughly; (5) the concentration of bacteria is diluted by removing 500 μL of the fluid in the coupon dish and placing it into a test tube with 4.5 mL of PBS; this solution is diluted in duplicate by removing 100 μL of the fluid and spreading into TSA plates labeled −2; (6) sterilized “hockey sticks” are used to spread solution thoroughly; (7) 500 μL of fluid from 1st tube prepared in step 5 is removed and placed into 4.5 mL of PBS; this dilution is mixed and 100 μL is removed in duplicate and placed into two new TSA plates labeled −3; (8) sterilized “hockey sticks” are used to spread these dilutions thoroughly; (9) steps 1-8 are repeated for each of the coupons or slides.

S. aureus [5] = format: cell-based, Staphylococcus aureus; settings: laboratory acrylic clearcoat, 24 h contact time
From the text: A laboratory experimental solvent based acrylic paint is formulated and then used to challenge S. aureus by adding various levels of the invention silver anionic surfactants as described in Example 33. A binder is made by solution polymerization of butyl acrylate (25% w/w), methylmethacrylate (73.5% w/w), and methacrylic acid (1.5% w/w) in amylacetate using thermal initiation. This solution polymer is then used to make a 60% solids clearcoat binder in xylene/methanol (5:1 by weight). The silver anionic surfactants are dissolved in this same xylene/methanol mixture prior to addition to the clearcoat.

[6] = 0.01 weight % Ag in PU composition
[7] = 0.03 weight % Ag in PU composition
[8] = 0.10 weight % Ag in PU composition
[9] = 0.30 weight % Ag in PU composition
[10] = 1.0 weight % Ag in PU composition
[11] = 3.0 weight % Ag in PU composition
[12] = acetate sprayed with 0.06% w/w AgAOT/isopropanol, 0 h contact time
[13] = acetate sprayed with 0.06% w/w AgAOT/isopropanol, 24 h contact time
[14] = cotton sprayed with 0.06% w/w AgAOT/isopropanol, 0 h contact time
[15] = cotton sprayed with 0.06% w/w AgAOT/isopropanol, 24 h contact time
[16] = linen sprayed with 0.06% w/w AgAOT/isopropanol, 24 h contact time
[17] = metal plate sprayed with 0.06% Ag+ AgAOT solution, 24 h contact time
[18] = polyester sprayed with 0.06% w/w AgAOT/isopropanol, 0 h contact time
[19] = polyester sprayed with 0.06% w/w AgAOT/isopropanol, 24 h contact time
[20] = rayon sprayed with 0.06% w/w AgAOT/isopropanol, 24 h contact time
[21] = silk sprayed with 0.06% w/w AgAOT/isopropanol, 0 h contact time
[22] = silk sprayed with 0.24% w/w AgAOT/isopropanol, 24 h
[23] = vinyl tile sprayed with 0.06% Ag+ AgAOT solution, 24 h contact time
[24] = wall-paper sprayed with 0.06% Ag+ AgAOT solution, 24 h contact time

Compound: CCCCC(CC)COC(=O)CC(C(=O)OCC(CC)CCCC)S(=O)(=O)[O-].[Ag+] (centres unmarked) [AgAOT]
- E. coli growth on coating (E. coli [1]; alkyd resin paint, 0.0012 weight % Ag in coating): +
- E. coli growth on coating (E. coli [1]; alkyd resin paint, 0.003 weight % Ag in coating): +
- E. coli growth on coating (E. coli [1]; alkyd resin paint, 0.012 weight % Ag in coating): −
- E. coli growth on coating (E. coli [1]; alkyd resin paint, 0.03 weight % Ag in coating): −
- E. coli growth on coating (E. coli [1]; alkyd resin paint, 0.06 weight % Ag in coating): −
- E. coli growth on coating (E. coli [1]; alkyd resin paint, 0.12 weight % Ag in coating): −
- Silver level effective at preventing any growth (E. coli [1]; alkyd resin paint): 0.012 % w/w
- Silver level partially effective (E. coli [1]; alkyd resin paint): 0.006 % w/w
- E. coli growth on coating (E. coli [1]; commercial 2K epoxy paint, 0.0012 weight % Ag in coating): +
- E. coli growth on coating (E. coli [1]; commercial 2K epoxy paint, 0.003 weight % Ag in coating): +
- E. coli growth on coating (E. coli [1]; commercial 2K epoxy paint, 0.006 weight % Ag in coating): +
- E. coli growth on coating (E. coli [1]; commercial 2K epoxy paint, 0.012 weight % Ag in coating): +
- E. coli growth on coating (E. coli [1]; commercial 2K epoxy paint, 0.03 weight % Ag in coating): +
- E. coli growth on coating (E. coli [1]; commercial 2K epoxy paint, 0.06 weight % Ag in coating): −
- E. coli growth on coating (E. coli [1]; commercial 2K epoxy paint, 0.12 weight % Ag in coating): −
- Silver level giving complete inhibition of growth (E. coli [1]; commercial 2K epoxy paint): 0.06 % w/w
- E. coli growth on coating (E. coli [1]; commercial solvent borne acrylate paint, 0.0012 weight % Ag in coating): +
- E. coli growth on coating (E. coli [1]; commercial solvent borne acrylate paint, 0.003 weight % Ag in coating): +
- E. coli growth on coating (E. coli [1]; commercial solvent borne acrylate paint, 0.006 weight % Ag in coating): +
- E. coli growth on coating (E. coli [1]; commercial solvent borne acrylate paint, 0.012 weight % Ag in coating): +
- E. coli growth on coating (E. coli [1]; commercial solvent borne acrylate paint, 0.06 weight % Ag in coating): −
- E. coli growth on coating (E. coli [1]; commercial solvent borne acrylate paint, 0.12 weight % Ag in coating): −
- Silver level partially effective (E. coli [1]; commercial solvent borne acrylic paint): 0.03 % Ag w/w
- E. coli growth on coating (E. coli [1]; laboratory solvent borne acrylate paint, 0.0012 weight % Ag in coating): +
- E. coli growth on coating (E. coli [1]; laboratory solvent borne acrylate paint, 0.003 weight % Ag in coating): +
- E. coli growth on coating (E. coli [1]; laboratory solvent borne acrylate paint, 0.006 weight % Ag in coating): +
- E. coli growth on coating (E. coli [1]; laboratory solvent borne acrylate paint, 0.012 weight % Ag in coating): +
- E. coli growth on coating (E. coli [1]; laboratory solvent borne acrylate paint, 0.03 weight % Ag in coating): +
- E. coli growth on coating (E. coli [1]; laboratory solvent borne acrylate paint, 0.06 weight % Ag in coating): −
- E. coli growth on coating (E. coli [1]; laboratory solvent borne acrylate paint, 0.12 weight % Ag in coating): −
- E. coli growth on PU composition (E. coli [2]; [6]): +
- E. coli growth on PU composition (E. coli [2]; [7]): +
- E. coli growth on PU composition (E. coli [2]; [8]): +
- E. coli growth on PU composition (E. coli [2]; [9]): −
- E. coli growth on PU composition (E. coli [2]; [10]): −
- E. coli growth on PU composition (E. coli [2]; [11]): −
- Silver level providing complete inhibition (E. coli [2]; PU composition): 0.30 % w/w silver
- S. aureus growth on PU composition (S. aureus [3]; [6]): +
- S. aureus growth on PU composition (S. aureus [3]; [7]): +
- S. aureus growth on PU composition (S. aureus [3]; [8]): +
- S. aureus growth on PU composition (S. aureus [3]; [9]): −
- S. aureus growth on PU composition (S. aureus [3]; [10]): −
- S. aureus growth on PU composition (S. aureus [3]; [11]): −
- Silver level providing complete inhibition (S. aureus [3]; PU composition): 0.30 % w/w silver
- S. aureus CFU/mL, Average [4, 12]: 0.00E+00 CFU/mL
- S. aureus CFU/mL, Run #1-#4 [4, 12]: 0.00E+00 CFU/mL
- S. aureus CFU/mL, Average [4, 13]: 0.00E+00 CFU/mL
- S. aureus CFU/mL, Run #1-#4 [4, 13]: 0.00E+00 CFU/mL
- S. aureus CFU/mL, Average [4, 14]: 0.00E+00 CFU/mL
- S. aureus CFU/mL, Run #1-#4 [4, 14]: 0.00E+00 CFU/mL
- S. aureus CFU/mL, Average [4, 15]: 0.00E+00 CFU/mL
- S. aureus CFU/mL, Run #1-#4 [4, 15]: 0.00E+00 CFU/mL
- S. aureus CFU/mL, Average ([4]; linen sprayed with 0.06% w/w AgAOT/isopropanol, 0 h contact time): 1.24E+04 CFU/mL
- S. aureus CFU/mL, Average [4, 16]: 0.00E+00 CFU/mL
- S. aureus CFU/mL, Run #1-#4 [4, 16]: 0.00E+00 CFU/mL
- S. aureus CFU/mL, Avg ([4]; metal plate sprayed with 0.06% Ag+ AgAOT solution, 0 h contact time): 3.90E+04 CFU/mL
- S. aureus CFU/mL, Avg [4, 17]: 0.00E+00 CFU/mL
- S. aureus CFU/mL, Run #1-#2 [4, 17]: 0.00E+00 CFU/mL
- S. aureus on sprayed household surfaces ([4]; metal plate, wall paper, vinyl tile, 0.06% silver solution, 24 h contact time): Complete killing is obtained for each of the surfaces
- S. aureus CFU/mL, Average [4, 18]: 0.00E+00 CFU/mL
- S. aureus CFU/mL, Run #1-#4 [4, 18]: 0.00E+00 CFU/mL
- S. aureus CFU/mL, Average [4, 19]: 0.00E+00 CFU/mL
- S. aureus CFU/mL, Run #1-#4 [4, 19]: 0.00E+00 CFU/mL
- S. aureus CFU/mL, Average ([4]; rayon sprayed with 0.06% w/w AgAOT/isopropanol, 0 h contact time): 1.88E+02 CFU/mL
- S. aureus CFU/mL, Average [4, 20]: 0.00E+00 CFU/mL
- S. aureus CFU/mL, Run #1-#4 [4, 20]: 0.00E+00 CFU/mL
- Inhibition of S. aureus growth ([4]; rayon, 0.06% Ag AgAOT/isopropanol, 0 h contact time): 3 orders of magnitude
- S. aureus CFU/mL, Average [4, 21]: 1.45E+05 CFU/mL
- S. aureus CFU/mL, Run #1-#2 [4, 21]: 1.80E+05 CFU/mL and 1.10E+05 CFU/mL
- S. aureus CFU/mL, Average ([4]; silk sprayed with 0.06% w/w AgAOT/isopropanol, 24 h contact time): 9.13E+03 CFU/mL
- S. aureus CFU/mL, Average ([4]; silk sprayed with 0.24% w/w AgAOT/isopropanol, 0 h): 1.35E+05 CFU/mL
- S. aureus CFU/mL, Average [4, 22]: 0.00E+00 CFU/mL
- S. aureus CFU/mL, Run #1-#4 [4, 22]: 0.00E+00 CFU/mL
- S. aureus CFU/mL, Avg ([4]; vinyl tile sprayed with 0.06% Ag+ AgAOT solution, 0 h contact time): 1.25E+05 CFU/mL
- S. aureus CFU/mL, Avg [4, 23]: 0.00E+00 CFU/mL
- S. aureus CFU/mL, Run #1-#2 [4, 23]: 0.00E+00 CFU/mL
- S. aureus CFU/mL, Avg ([4]; wall-paper sprayed with 0.06% Ag+ AgAOT solution, 0 h contact time): 9.75E+04 CFU/mL
- S. aureus CFU/mL, Avg [4, 24]: 0.00E+00 CFU/mL
- S. aureus CFU/mL, Run #1-#2 [4, 24]: 0.00E+00 CFU/mL
- Silver level with partial growth (S. aureus [5]): this lowest level

From patent US20090060984A1, “ANIONIC SURFACTANTS LETHAL TO GRAM-POSITIVE BACTERIA” (priority 2007, published 2009)
